Laboratory results published in PubChem BioAssay (NCI).
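Abbreviation: GI50, concentration required for 50% inhibition of growth. TGI marks complete inhibition of growth.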

Columns and labels:
Assay in all cases: NCI-60 cell line screen, 384-well format
[1] = tested on: HS 578T breast
[2] = tested on: HCC-2998 colon
[3] = tested on: SN12C renal
[4] = tested on: ACHN renal
[5] = tested on: MOLT-4 leukemia
[6] = tested on: HL-60(TB) leukemia
[7] = tested on: OVCAR-8 ovarian
[8] = tested on: KM12 colon
[9] = tested on: HCT-116 colon
[10] = tested on: CAKI-1 renal
[11] = tested on: TK-10 renal
[12] = tested on: NCI-H522 lung
[13] = tested on: BT-549 breast

Work on `CC(O)[C@H](NC(=O)N[C@@H](CC(N)=O)c1nc(N2CCNCC2)no1)C(=O)O` (stereo partly specified) yielded a GI50 [1] greater than 100 µM, a TGI [1] greater than 100 µM and a GI50 [2] greater than 100 µM. For the same compound, the TGI [2] was greater than 100 µM, the GI50 [3] was greater than 100 µM and the TGI [3] was greater than 100 µM. The GI50 [4] was greater than 100 µM, the TGI [4] was greater than 100 µM and the GI50 [5] was greater than 100 µM. The TGI [5] was greater than 100 µM, the GI50 [6] was greater than 100 µM and the TGI [6] was greater than 100 µM. For the same compound, the GI50 [7] was greater than 100 µM, the TGI [7] was greater than 100 µM and the GI50 [8] was greater than 100 µM. For the same compound, the TGI [8] was greater than 100 µM, the GI50 [9] was greater than 100 µM and the TGI [9] was greater than 100 µM. It also gave a GI50 [10] greater than 100 µM, a TGI [10] greater than 100 µM and a GI50 [11] greater than 100 µM. The TGI [11] was greater than 100 µM, the GI50 [12] was greater than 100 µM and the TGI [12] was greater than 100 µM. It also gave a GI50 [13] greater than 100 µM and a TGI [13] greater than 100 µM.
